Measured values published in ChEMBL document CHEMBL1136278, “Synthesis and anticancer effect of B-ring trifluoromethylated flavonoids” (Bioorg Med Chem Lett, 2003).

test system: SGC-7901; experiment: In vitro anti-cancer activity against SGC-7901 cell; assay type: functional, cell-based; conditions: Homo sapiens

| Compound | IC50 |
| --- | --- |
| COc1ccc2c(c1)O/C(=C\c1ccc(C(F)(F)F)cc1)C2=O | 21.2 µM |
| CCCCCCCOc1cc(OCCCCCCC)c2c(=O)cc(-c3ccc(C(F)(F)F)cc3)oc2c1 | 30.8 µM |
| O=c1cc(-c2ccc(C(F)(F)F)cc2)oc2cc(O)ccc12 | 17.8 µM |
| CCCCCCCCOc1cc(OCCCCCCCC)c2c(=O)cc(-c3ccc(C(F)(F)F)cc3)oc2c1 | 18.1 µM |
| CCOc1cc(OCC)c2c(=O)cc(-c3ccc(C(F)(F)F)cc3)oc2c1 | 44 µM |
| CCOc1ccc2c(=O)cc(-c3ccc(C(F)(F)F)cc3)oc2c1 | 28.5 µM |
| CCOc1ccc2c(c1)O/C(=C\c1ccc(C(F)(F)F)cc1)C2=O | 15.6 µM |
| CCOc1cc(OCC)c2c(=O)c(CC)c(-c3ccc(C(F)(F)F)cc3)oc2c1 | 72.5 µM |
| CCCCCCCCCCOc1cc(OCCCCCCCCCC)c2c(=O)cc(-c3ccc(C(F)(F)F)cc3)oc2c1 | 9.02 µM |
| CCCOc1cc(OCCC)c2c(=O)c(CCC)c(-c3ccc(C(F)(F)F)cc3)oc2c1 | 8.64 µM |
| O=c1cc(-c2ccc(C(F)(F)F)cc2)oc2cc(O)cc(O)c12 | 6.62 µM |
| CC(=O)Oc1c(C(F)(F)F)c(O)c2c(=O)cc(-c3ccccc3)oc2c1C(F)(F)F | 8.6 µM |
| COc1ccc2c(=O)cc(-c3ccc(C(F)(F)F)cc3)oc2c1 | 8.28 µM |
| O=C1/C(=C/c2ccc(C(F)(F)F)cc2)Oc2cc(OCc3ccccc3)ccc21 | 14.7 µM |
| COc1cc(OC)c2c(=O)c(C)c(-c3ccc(C(F)(F)F)cc3)oc2c1 | 10.1 µM |

Stronger by IC50, values ahead:

| IC50 | Compound |
| --- | --- |
| 5.9 µM | COc1cc(O)c2c(=O)cc(-c3ccccc3)oc2c1C(F)(F)F |
| 5.61 µM | CCCOc1ccc2c(=O)cc(-c3ccc(C(F)(F)F)cc3)oc2c1 |
| 5.35 µM | CCCCCCCOc1ccc2c(c1)O/C(=C\c1ccc(C(F)(F)F)cc1)C2=O |
| 5.26 µM | C=CCOc1ccc2c(=O)cc(-c3ccc(C(F)(F)F)cc3)oc2c1 |
| 5 µM | O=c1cc(-c2ccc(C(F)(F)F)cc2)oc2cc(OCc3ccccc3)cc(OCc3ccccc3)c12 |
| 4.37 µM | COc1cc(OC)c2c(=O)cc(-c3ccc(C(F)(F)F)cc3)oc2c1 |
| 4.31 µM | O=C1/C(=C/c2ccc(C(F)(F)F)cc2)Oc2cc(O)ccc21 |
| 4.16 µM | CCCCCCCCOc1ccc2c(=O)cc(-c3ccc(C(F)(F)F)cc3)oc2c1 |
| 3.05 µM | C=CCOc1ccc2c(c1)O/C(=C\c1ccc(C(F)(F)F)cc1)C2=O |
| 2.7 µM | CCCOc1cc(OCCC)c2c(=O)cc(-c3ccc(C(F)(F)F)cc3)oc2c1 |
